Source: patent US10722575B2, “Use of 1,3-diphenylprop-2-en-1-one derivatives for treating liver disorders” (GENFIT, priority 2009, dated 2020)

Tests used:
Assay type in all cases: in vivo
[1] = system: ob/ob mice; test: ob/ob mice, hepatic gene expression by quantitative RT-PCR after 26 days of treatment; details: 26 days daily gavage, Cpd 29 10 and 30 mg/kg/day, Fenofibrate 100 mg/kg/day, Rosiglitazone 10 mg/kg/day
Protocol: The compounds of the General Formula (I) were tested in a murine model of type II diabetes, the ob/ob mice. Mice were daily orally treated with the Compound 29 of WO 2004/005233 at two different doses (10 and 30 mg/kg/day) and with the prototypical PPARalpha- and PPARgamma-specific reference compounds (Fenofibrate at 100 mg/kg/day and Rosiglitazone at 10 mg/kg/day respectively). After 26 days of treatment, animals were sacrificed and plasma samples and livers were harvested. Hepatic expression of genes that are known to be implicated in the liver inflammation process was evaluated and plasmatic levels of ALAT were measured (Panels A-C). […]
Male ob/ob mice (8 weeks of age) were purchased from Charles River (L'Arbresle, France) and were kept on a 12-hour light/dark cycle at a constant temperature of 20±3° C. After a 1 week acclimation, mice were separated in groups of 8 animals selected such that the distribution of their body weight and their 6 hours fasting glycemia determined before the experiment were uniform. […]
Total RNA was isolated from frozen livers using the NucleoSpin® 96 RNA kit (Macherey Nagel), according to the manufacturer's instructions. […] Quantitative PCR was then carried out using the MyiQ Single-Color Real-Time PCR Detection System (Biorad). […]

[2] = system: ob/ob mice; test: ob/ob mice, plasma ALAT after 26 days of treatment; details: 26 days daily gavage; Cpd 29 30 mg/kg/day, Rosiglitazone 10 mg/kg/day; FIG. 2C
Protocol: The compounds of the General Formula (I) were tested in a murine model of type II diabetes, the ob/ob mice. […] After 26 days of treatment, animals were sacrificed and plasma samples and livers were harvested. Hepatic expression of genes that are known to be implicated in the liver inflammation process was evaluated and plasmatic levels of ALAT were measured (Panels A-C). Statistical analysis was performed using unpaired T-test with three p values that defines statistical relevance (* means p<0.05; ** means p<0.01; *** means p<0.001).
Male ob/ob mice (8 weeks of age) were purchased from Charles River (L'Arbresle, France) and were kept on a 12-hour light/dark cycle at a constant temperature of 20±3° C. After a 1 week acclimation, mice were separated in groups of 8 animals selected such that the distribution of their body weight and their 6 hours fasting glycemia determined before the experiment were uniform. Animals were fed a standard chow diet (R03, SAFE) and treated during 26 days with the compounds of interest. […] Control animals were treated with vehicle only (Carboxymethlycellulose 1%+Tween-80 0.1%). Animals had access to food and water ad libitum.
At the end of the studies, the animals were weighed and sacrificed under anesthesia. […]

[3] = system: hApoE2 KI mice; test: hApoE2 KI mice on Western diet, 2 weeks, histological scores of liver steatosis and intralobular inflammation; details: 30 mg/kg/day
Protocol: (§1) Animals were fed a Western diet (20% saturated fat and 0.2% cholesterol, Harlan Teklad TD88137) during 2 weeks in the first study, that involved the daily administration of Cpd 29 (at 30 mg/kg/day by oral gavage), and during 6 weeks in the second study, that involved the daily administration of Compound 1 of WO 2007147879 (Cpd1, at 30 mg/kg/day by oral gavage). Control animals were treated with vehicle only (Carboxymethlycellulose 1%+Tween-80 0.1%). Animals had access to food and water ad libitum.
(§2) At the end of the studies, the animals were weighed and sacrificed under anesthesia. Blood was collected from the retro-orbital sinus; plasma was obtained by centrifugation (4 000 rpm, at 4° C. for 15 min) and subsequently frozen and stored at −20° C. Tissues and livers were isolated and snap-frozen in liquid nitrogen and stored at −80° C. for subsequent analysis (gene expression and biochemistry) or fixed in 4% paraformaldehyde for histology.
(§3) Formalin-fixed liver tissue was processed, and 5-μm-thick paraffin sections were stained with Hematoxylin and Eosin. The histological analysis of stained liver sections was carried out in blind conditions to quantify liver steatosis and liver intralobular inflammation. Liver steatosis was scored from 0 to 3 as follows: 0 (very slightly affected), 1 (slightly affected), 2 (moderately affected), 3 (highly affected). Liver intralobular inflammation was also scored depending on the number of inflammatory foci counted by field of observation as follows: 0 (<1 focus/field), 1 (1 to 2 foci/field), 2 (2 to 4 foci/field) 3 (more than 4 foci/field).
(§4) Exemplary compounds of the General Formula (I) were tested in vivo in a high fat diet mice model. hApoE2 KI and hApoE2 KI/PPARalpha KO (“humanized” ApoE2 knock-in mice deficient for the mPPARalpha gene) were fed a Western diet and daily treated with the Cpd 29 at 30 mg/kg/day during 2 weeks. At the end of the protocol, liver steatosis and intra-lobular inflammation were evaluated in the control and treated mice by means of histological analysis and specific scores.

[4] = system: hApoE2 KI/PPARalpha KO mice; test: hApoE2 KI/PPARalpha KO mice on Western diet, 2 weeks, histological scores of liver steatosis and intralobular inflammation; details: 30 mg/kg/day
Protocol: as §1, §2, §3, §4

[5] = hApoE2 KI/PPARalpha KO mice, Western diet

## 1-[4-methylthiophenyl]-3-[3,5-dimethyl-4-carboxydimethylmethyloxyphenyl]prop-2-en-1-one [Cpd 29]
[1]; FIG. 2A
  hepatic expression of TNFalpha: inhibited the expression of this cytokine in a dose-response manner
[1]; FIG. 2B
  hepatic expression level of TGFbeta: inhibited the expression of this growth factor in a dose-response manner
[2]
  plasmatic levels of ALAT: statistically significant decrease
[3]; hApoE2 KI mice, Western diet
  development of liver inflammation induced by the diet: inhibits
  development of liver steatosis induced by the diet: inhibits
[3]; share of group with score 0 (<1 focus/field), hApoE2 KI
  Liver Inflammation (score) 0: 100%
[3]; share of group with score 0 (very slightly affected), hApoE2 KI
  Liver Steatosis (score) 0: 83%
[3]; share of group with score 1 (1 to 2 foci/field), hApoE2 KI
  Liver Inflammation (score) 1: 0%
[3]; share of group with score 1 (slightly affected), hApoE2 KI
  Liver Steatosis (score) 1: 17%
[3]; share of group with score 2 (2 to 4 foci/field), hApoE2 KI
  Liver Inflammation (score) 2: 0%
[3]; share of group with score 2 (moderately affected), hApoE2 KI
  Liver Steatosis (score) 2: 0%
[3]; share of group with score 3 (highly affected), hApoE2 KI
  Liver Steatosis (score) 3: 0%
[3]; share of group with score 3 (more than 4 foci/field), hApoE2 KI
  Liver Inflammation (score) 3: 0%
[4]; [5]
  development of liver inflammation induced by the diet: inhibits
  development of liver steatosis induced by the diet: inhibits
[4]; share of group with score 0 (<1 focus/field), hApoE2 KI/PPARalpha KO
  Liver Inflammation (score) 0: 67%
[4]; share of group with score 0 (very slightly affected), hApoE2 KI/PPARalpha KO
  Liver Steatosis (score) 0: 0%
[4]; share of group with score 1 (1 to 2 foci/field), hApoE2 KI/PPARalpha KO
  Liver Inflammation (score) 1: 17%
[4]; share of group with score 1 (slightly affected), hApoE2 KI/PPARalpha KO
  Liver Steatosis (score) 1: 33%
[4]; share of group with score 2 (2 to 4 foci/field), hApoE2 KI/PPARalpha KO
  Liver Inflammation (score) 2: 17%
[4]; share of group with score 2 (moderately affected), hApoE2 KI/PPARalpha KO
  Liver Steatosis (score) 2: 50%
[4]; share of group with score 3 (highly affected), hApoE2 KI/PPARalpha KO
  Liver Steatosis (score) 3: 17%
[4]; share of group with score 3 (more than 4 foci/field), hApoE2 KI/PPARalpha KO
  Liver Inflammation (score) 3: 0%
